“Also recorded” adds a separate entry of the source. Square brackets hold non-standard residues; d marks the D form. Peptide text beside a SMILES is read from it.
Legend:
SiHa = experiment: cell proliferation by MTS assay for 72 h, SiHa; assay type: cell-based, human; conditions: SiHa tumor cell line
Description: (§1) PM 2011 (1) inhibits tumor cell lines independent of endothelin receptor A (ETA) inhibition: Others have disclosed PM 2011 (1) and its derivatives as potent endothelin receptor antagonists (WO 92/12991, EP 526,642, U.S. Pat. No. 5,248,807, U.S. Pat. No. 5,463,107 and U.S. Pat. No. 5,587,505). We have used human tumor cell lines to evaluate the effects of PM 2011 (1) on endothelin-1 (ET-1) dependent biologic functions. Some of these cell lines are well characterized for the expression and role of ET-1, ETA and ETB (16, 41). […] To validate three cell lines, we studied the effects of BQ123, BQ788, PM2010, PM2011 and PM2012 on cell proliferation by MTS assay for 72 h (16).

SK-Mel-28 = experiment: cell proliferation by MTS assay for 72 h, SK-Mel-28; assay type: cell-based, human; conditions: for growth inhibition of SK-Mel 28 cell line (in words): SK-Mel 28, MTS assay
Description: as §1

C33A = experiment: cell proliferation by MTS assay for 72 h, C33A; assay type: cell-based, human
Description: as §1

K562 = experiment: cell proliferation by MTS assay for 72 h, K562; assay type: cell-based, human; conditions: K562 tumor cell line
Description: as §1

HL60 = experiment: cell proliferation by MTS assay for 72 h, HL60; assay type: cell-based, human
Description: as §1

NF-κB = experiment: TNF-α-dependent activation of NF-κB binding to κB site in nuclear extracts of HeLa cells, ELISA (Panomics); assay type: cell-based; conditions: HeLa cell nuclear extracts, FIG. 1
Description: To further explore the additional molecular target(s) for PM2011, we postulated that these compounds could antagonize the activation of NF-κB. To test this hypothesis, we evaluated the effects of PM2010, PM2011 and PM2012 on TNF-α-dependent activation of NF-κB binding to κB site in nuclear extracts of HeLa cells by an ELISA (Panomics) as recommended.

[1] = Homo sapiens, 100 μM, read-out: % Inhibition at 100 μM (i)

CCCC[C@@H](NC(=O)[C@@H](Cc1cn(C(=O)OC)c2ccccc12)NC(=O)[C@H](CC(C)(C)C)NC(=O)N1[C@H](C)CCC[C@@H]1C)C(=O)O [BQ788]
inhibition at 100 µM (SiHa; [1]): 45% | IC50 (SK-Mel-28; Homo sapiens, SK-Mel-28 tumor cell line, MTS assay): 82 µM | growth inhibition of SK-Mel 28 cell line (in words) (SK-Mel-28): inhibited the growth | IC50 (C33A; Homo sapiens, C-33-A, C33A tumor cell line, MTS assay, 72 h): 61.8 µM | inhibition at 100 µM (K562; [1]): 0% | IC50 (HL60; Homo sapiens, HL-60, HL60 tumor cell line): 45 µM

CC(C)C[C@@H]1NC(=O)[C@@H](C(C)C)NC(=O)[C@@H]2CCCN2C(=O)[C@@H](CC(=O)O)NC(=O)[C@@H](Cc2c[nH]c3ccccc23)NC1=O [BQ-123] (cyclo(L[dW][dD]P[dV]))
% Inhibition at 100 μM (i) (SiHa; 100 μM): 0% i | growth inhibition of SK-Mel 28 cell line (in words) (SK-Mel-28): no growth inhibition | % Inhibition at 100 μM (i) (SK-Mel-28; SK-Mel-28 tumor cell line, 100 μM, MTS assay): 0% i | % Inhibition at 100 μM (i) (C33A; C33A tumor cell line, 100 μM, MTS assay, 72 h): 20% i | % Inhibition at 100 μM (i) (K562; 100 μM): 30% | IC50 (HL60; HL60 tumor cell line): 46 µM

Myriceric acid A [PM2011]
IC50 (SiHa): 3000 nM | IC50 (SK-Mel-28; SK-Mel-28 tumor cell line, MTS assay): 0.9 µM | IC50 (C33A; C33A tumor cell line, MTS assay, 72 h): 1.3 µM | inhibition of C33A (in words) (C33A; HPV-negative cell line C33A, neither secretes ET-1 nor expresses ETA): inhibition | IC50 (K562): 1000 nM | IC50 (HL60; HL60 tumor cell line): 2.3 µM | NF-κB binding to κB site / inhibition of NF-κB activation (in words) (NF-κB): dose-dependent inhibition; also recorded: dose-dependent decrease
